From patent US9650395B2, “Antibacterial compounds and methods for use” (PTC Therapeutics, Inc., priority 2011, dated 2017)
Converted amounts (≈) assume the structure as drawn. Where two headings read alike, the source gives them in different places.

What was measured:
[1] = tested on: control Gram-negative E. coli 25922 strain; assay: Antibacterial activity, microbroth dilution MIC, E. coli 25922; type: cell-based, Escherichia coli; conditions: Escherichia coli; E. coli 25922, microbroth dilution; read-out: MIC, 25922
[2] = tested on: Acinetobacter baumannii (A. baumannii) BAA747; assay: Antibacterial activity, MIC, A. baumannii BAA747; type: cell-based; conditions: Acinetobacter baumannii; A. baumannii BAA747; read-out: MIC BAA747
[3] = tested on: quinolone resistant E. coli LZ3111; assay: Antibacterial activity, MIC, quinolone resistant E. coli LZ3111; type: cell-based, Escherichia coli; conditions: Escherichia coli, read-out: MIC, LZ3111
From the text: (§1) The antibacterial activity from a microbroth dilution method may be presented as the minimum inhibitory concentration (MIC in […]). The MIC value is the lowest concentration of a drug which prevents macroscopically visible bacterial growth under test conditions.
Mutations in these regions are known to confer a high level resistance to the quinolone class of antibiotics.

[4] = tested on: resistant A. baumannii MXX2240 (MDR clinical isolate); assay: Antibacterial activity, MIC, resistant A. baumannii MXX2240; type: cell-based, Acinetobacter baumannii; conditions: Acinetobacter baumannii, read-out: MIC MMX2240
[5] = tested on: Pseudomonas aeruginosa (P. aeruginosa) 27853; assay: Antibacterial activity, MIC, P. aeruginosa 27853; type: cell-based; conditions: Pseudomonas aeruginosa, P. aeruginosa 27853; read-out: MIC 27853
From the text: as §1
Antibacterial activity of test compounds against the Gram-negative bacterium Pseudomonas aeruginosa (P. aeruginosa) 27853 is shown in Table 5.

[6] = tested on: super sensitive Gram-negative Escherichia coli (E. coli) BAS849; assay: Antibacterial activity, microbroth dilution MIC, E. coli BAS849; type: cell-based; conditions: Escherichia coli; E. coli BAS849, microbroth dilution; read-out: MIC, BAS849
[7] = tested on: resistant K. pneumoniae MXX1232 (MDR clinical isolate); assay: Antibacterial activity, MIC, resistant K. pneumoniae MXX1232; type: cell-based, Klebsiella pneumoniae; conditions: Klebsiella pneumoniae, read-out: MIC MMX1232
[8] = tested on: Klebsiella pneumoniae (K. pneumoniae) 35657; assay: Antibacterial activity, MIC, K. pneumoniae 35657; type: cell-based; conditions: Klebsiella pneumoniae
[9] = tested on: Gram-positive Staphylococcus aureus (S. aureus) 29213; assay: Antibacterial activity, microbroth dilution MIC, S. aureus 29213; type: cell-based; conditions: Staphylococcus aureus; S. aureus 29213, microbroth dilution; read-out: MIC, 29213
[10] = resistant A. baumannii MMX2240, MDR clinical isolate
[11] = resistant K. pneumoniae MMX1232, MDR clinical isolate

Compound	MIC [1] [µg/mL]	MIC [2] [µg/mL]	MIC [3] [µg/mL]	MIC [4, 10] [µg/mL]	MIC [5] [µg/mL]	MIC [6] [µg/mL]	MIC [7, 11] [µg/mL]	MIC [8] [µg/mL]	MIC [9] [µg/mL]	MIC [4] [µg/mL]	MIC [7] [µg/mL]
CCc1c(-c2ccc(N3CC4(CCNCC4)C3)cc2)[nH]c(=O)c(C(=O)O)c1O [Cpd 320, 6-(4-(2,7-diazaspiro[3.5]nonan-2-yl)phenyl)-5-ethyl-4-hydroxy-2-oxo-1,2-dihydropyridine-3-carboxylic acid]	12.5 to 150 (≈ 32.6 to 391 µM)	12.5 to 150 (≈ 32.6 to 391 µM)	12.5 to 150 (≈ 32.6 to 391 µM)	12.5 to 150 (≈ 32.6 to 391 µM)	12.5 to 150 (≈ 32.6 to 391 µM)	3.5 to 12.5 (≈ 9.13 to 32.6 µM)	12.5 to 150 (≈ 32.6 to 391 µM)	3.5 to 12.5 (≈ 9.13 to 32.6 µM)	12.5 to 150 (≈ 32.6 to 391 µM)		
CCc1c(-c2ccc(C3CCN(CC)CC3)cc2)[nH]c(=O)c(C(=O)O)c1O [Cpd 339, 5-ethyl-6-(4-(1-ethylpiperidin-4-yl)phenyl)-4-hydroxy-2-oxo-1,2-dihydropyridine-3-carboxylic acid]	12.5 to 150 (≈ 33.7 to 405 µM)	12.5 to 150 (≈ 33.7 to 405 µM)	12.5 to 150 (≈ 33.7 to 405 µM)	12.5 to 150 (≈ 33.7 to 405 µM)	12.5 to 150 (≈ 33.7 to 405 µM)	3.5 to 12.5 (≈ 9.45 to 33.7 µM)	12.5 to 150 (≈ 33.7 to 405 µM)	12.5 to 150 (≈ 33.7 to 405 µM)	12.5 to 150 (≈ 33.7 to 405 µM)		
CCNc1ccc(-c2[nH]c(=O)c(C(=O)O)c(O)c2CC)cc1 [Cpd 325, 5-ethyl-6-(4-(ethylamino)phenyl)-4-hydroxy-2-oxo-1,2-dihydropyridine-3-carboxylic acid]	3.5 to 12.5 (≈ 11.6 to 41.3 µM)	3.5 to 12.5 (≈ 11.6 to 41.3 µM)	12.5 to 150 (≈ 41.3 to 496 µM)	12.5 to 150 (≈ 41.3 to 496 µM)	12.5 to 150 (≈ 41.3 to 496 µM)	< 1	12.5 to 150 (≈ 41.3 to 496 µM)	3.5 to 12.5 (≈ 11.6 to 41.3 µM)	12.5 to 150 (≈ 41.3 to 496 µM)		
CCc1c(-c2ccc(C3=CCNCC3)cc2)[nH]c(=O)c(C(=O)O)c1O [Cpd 340, 5-ethyl-4-hydroxy-2-oxo-6-(4-(1,2,3,6-tetrahydropyridin-4-yl)phenyl)-1,2-dihydropyridine-3-carboxylic acid]	12.5 to 150 (≈ 36.7 to 441 µM)	12.5 to 150 (≈ 36.7 to 441 µM)	12.5 to 150 (≈ 36.7 to 441 µM)		12.5 to 150 (≈ 36.7 to 441 µM)	3.5 to 12.5 (≈ 10.3 to 36.7 µM)		3.5 to 12.5 (≈ 10.3 to 36.7 µM)	12.5 to 150 (≈ 36.7 to 441 µM)	12.5 to 150 (≈ 36.7 to 441 µM)	12.5 to 150 (≈ 36.7 to 441 µM)
CCc1c(-c2cnc(N3CCCC3)cn2)[nH]c(=O)c(C(=O)O)c1O [Cpd 313, 5-ethyl-4-hydroxy-2-oxo-6-(5-(pyrrolidin-1-yl)pyrazin-2-yl)-1,2-dihydropyridine-3-carboxylic acid]	12.5 to 150 (≈ 37.8 to 454 µM)	3.5 to 12.5 (≈ 10.6 to 37.8 µM)	12.5 to 150 (≈ 37.8 to 454 µM)	12.5 to 150 (≈ 37.8 to 454 µM)	12.5 to 150 (≈ 37.8 to 454 µM)	< 1	12.5 to 150 (≈ 37.8 to 454 µM)	3.5 to 12.5 (≈ 10.6 to 37.8 µM)	12.5 to 150 (≈ 37.8 to 454 µM)		
CN(C)c1ccc(-c2[nH]c(=O)c(C(=O)O)c(O)c2CC(O)CO)cc1 (stereo not drawn) [Cpd 329, 5-(2,3-dihydroxypropyl)-6-(4-(dimethylamino)phenyl)-4-hydroxy-2-oxo-1,2-dihydropyridine-3-carboxylic acid]	12.5 to 150 (≈ 35.9 to 431 µM)	12.5 to 150 (≈ 35.9 to 431 µM)	3.5 to 12.5 (≈ 10 to 35.9 µM)	12.5 to 150 (≈ 35.9 to 431 µM)	12.5 to 150 (≈ 35.9 to 431 µM)	12.5 to 150 (≈ 35.9 to 431 µM)	12.5 to 150 (≈ 35.9 to 431 µM)	12.5 to 150 (≈ 35.9 to 431 µM)	12.5 to 150 (≈ 35.9 to 431 µM)		
CCc1c(-c2ccc(C3CCN(C)CC3)cc2)[nH]c(=O)c(C(=O)O)c1O [Cpd 338, 5-ethyl-4-hydroxy-6-(4-(1-methylpiperidin-4-yl)phenyl)-2-oxo-1,2-dihydropyridine-3-carboxylic acid]	12.5 to 150 (≈ 35.1 to 421 µM)	12.5 to 150 (≈ 35.1 to 421 µM)	12.5 to 150 (≈ 35.1 to 421 µM)	12.5 to 150 (≈ 35.1 to 421 µM)	12.5 to 150 (≈ 35.1 to 421 µM)	12.5 to 150 (≈ 35.1 to 421 µM)	12.5 to 150 (≈ 35.1 to 421 µM)	12.5 to 150 (≈ 35.1 to 421 µM)	12.5 to 150 (≈ 35.1 to 421 µM)		
CCc1c(-c2cnc(N(C)C)cn2)[nH]c(=O)c(C(=O)O)c1O [Cpd 312, 6-(5-(dimethylamino)pyrazin-2-yl)-5-ethyl-4-hydroxy-2-oxo-1,2-dihydropyridine-3-carboxylic acid]	12.5 to 150 (≈ 41.1 to 493 µM)	3.5 to 12.5 (≈ 11.5 to 41.1 µM)	12.5 to 150 (≈ 41.1 to 493 µM)	12.5 to 150 (≈ 41.1 to 493 µM)	12.5 to 150 (≈ 41.1 to 493 µM)	< 1	12.5 to 150 (≈ 41.1 to 493 µM)	3.5 to 12.5 (≈ 11.5 to 41.1 µM)	12.5 to 150 (≈ 41.1 to 493 µM)		
CCc1c(-c2ccc(CCN(C)C)cc2)[nH]c(=O)c(C(=O)O)c1O [Cpd 343, 6-(4-(2-(dimethylamino)ethyl)phenyl)-5-ethyl-4-hydroxy-2-oxo-1,2-dihydropyridine-3-carboxylic acid]	12.5 to 150 (≈ 37.8 to 454 µM)	12.5 to 150 (≈ 37.8 to 454 µM)	12.5 to 150 (≈ 37.8 to 454 µM)	12.5 to 150 (≈ 37.8 to 454 µM)	12.5 to 150 (≈ 37.8 to 454 µM)	3.5 to 12.5 (≈ 10.6 to 37.8 µM)	12.5 to 150 (≈ 37.8 to 454 µM)	12.5 to 150 (≈ 37.8 to 454 µM)	12.5 to 150 (≈ 37.8 to 454 µM)		
